Reference: patent US10723727B2, “Tubulysin analogs and methods for their preparation” (priority 2016, dated 2020)
Where two headings read alike, the source gives them in different places.

Columns and labels:
[1] = tested on: N87 (gastric cancer) cells; assay: In vitro cell assay (MTS cell viability), N87; format: cell-based; conditions: 96 h, free compounds; 96 hours after treatment
Protocol: (§1) In Vitro Cell Assay Procedure
(§2) Target expressing (BT474 (breast cancer), N87 (gastric cancer), HCC1954 (breast cancer), MDA-MB-361-DYT2 (breast cancer)) or non-expressing (HT-29) cells were seeded in 96-well cell culture plates for 24 hours before treatment. Cells were treated with 3-fold serially diluted antibody-drug conjugates or free compounds (i. e. no antibody conjugated to the drug) in duplicate at 10 concentrations. Cell viability was determined by CellTiter 96® AQueous One Solution Cell Proliferation MTS Assay (Promega, Madison Wis.) 96 hours after treatment. Relative cell viability was determined as percentage of untreated control. IC50 values were calculated using a four parameter logistic model #203 with XLfit v4. 2 (IDBS, Guildford, Surry, UK).

[2] = tested on: MDA-MB-361-DYT2 (breast cancer) cells; assay: In vitro cell assay (MTS cell viability), MDA-MB-361-DYT2; format: cell-based; conditions: 96 h, free compounds; 96 hours after treatment
Protocol: as §1, §2

[3] = target: T1, tubulin/RB3-stathmin-like-domain (RB3-SLD-tdm) complex (Sus scrofa, UniProt P02550+P02554); assay: Tubulin Peptide-Binding Site Competition Assay (fluorescence polarization); set-up: species or system Porcine
T1 construct: purchased Cytoskeleton, Inc. T240; host or cells: RB3-SLD was made in house in E. coli
Protocol: Tubulin Peptide-Binding Site Competition Assay
Tubulin binding potency was measured for payloads or cysteine-capped linker-payloads using a fluorescence polarization (FP) competition assay. The binding of a BODIPY-labeled vinca peptide probe (# B31) to a tubulin/RB3-stathmin-like-domain (RB3-SLD-tdm) complex generates a high FP signal, which can be decreased when mixing with test compounds that compete with the FP probe. The order of addition for the reagents in the FP assay was designed to pre-mix the FP probe with various concentrations of the test compound before mixing them with the tubulin/RB3-SLD-dm complex. The final assay concentrations of the probe, tubulin and RB3-SLD-dm were 3, 6, and 100 nM, respectively. IC50 for each test compound is obtained by fitting the dose-dependent FP signal change using GraphPad Prism version 5 software (La Jolla, Calif.) while Ki is converted from the IC50 using the equations described previously (Nikolovska-Coleska et al., 2004). The FP signals were measured on an Infinite M1000 (Tecan, San Jose, Calif.) using ProxiPlate-384 F Plus, Black (Perkin-Elmer, Waltham, Mass., Cat #6008260) with 15 μL of solution per well. Sample dilution and mixing were done using a Beckman Biomek XF (Brea, Calif.). Porcine tubulin was purchased from Cytoskeleton, Inc. (Denver, Colo., Cat #T240) and RB3-SLD was expressed in E. coli. and purified on Q and then Superdex75 columns. The FP assay test for each compound was run in duplicates by mixing 6 μL of solution 1 containing 2.5× test compound (2.5× serial dilution from 7.8 μM maximum concentration, 11 total concentrations) and 7.5 nM of the FP probe in 80 mM PIPES, pH 7.0, 0.02% Tween 20, 2 mM MgCl2, 1 mM EGTA and 3% DMSO with 9 μL of solution 2 containing […] porcine tubulin and 167 nM of RB3-SLD-dm peptide ([…]-[…]) on ProxiPlate-384 micro-plates.

[4] = FP competition with BODIPY-labeled vinca peptide probe, read after five hours at 22° C., read-out: Tubulin Peptide-Binding Site Competition Assay IC50

SMILES	IC50 [3, 4] [nM]	further results
CC[C@H](C)[C@H](NC(=O)[C@H]1CCCCN1C)C(=O)N(C)[C@H](C[C@@H](OC(C)=O)c1nc(C(=O)N[C@@H](Cc2ccccc2)CC(C)P(=O)(O)O)cs1)C(C)C (stereo partly drawn) [#B3, N-[(1R,3R)-1-(acetyloxy)-4-methyl-1-(4-{[(2S)-1-phenyl-4-phosphonopentan-2-yl]carbamoyl}-1,3-thiazol-2-yl)pentan-3-yl]-N-methyl-N˜2˜-{[(2R)-1-methylpiperidin-2-yl]carbonyl}-L-isoleucinamide]	–	IC50 [1]: 14.8 nM; IC50 [2]: 9.4 nM; IC50 [3]: 4.4 nM
CC[C@H](C)[C@H](NC(=O)[C@H]1CCCCN1C)C(=O)N(C)[C@H](C[C@@H](OC(C)=O)c1nc(C(=O)N[C@@H](Cc2ccccc2)CN2CCOCC2)cs1)C(C)C [#B40, (1R,3R)-4-methyl-3-[methyl(N-{[(2R)-1-methylpiperidin-2-yl]carbonyl}-L-isoleucyl)amino]-1-[4-({(2S)-1-(morpholin-4-yl)-3-phenylpropan-2-yl]carbamoyl}-1,3-thiazol-2-yl)pentyl acetate]	2.4	IC50 [1]: 0.485 nM; IC50 [2]: 0.308 nM
CC[C@H](C)[C@H](NC(=O)C1(N(C)C)CCCC1)C(=O)N(C)[C@H](C[C@@H](OC(C)=O)c1nc(C(=O)N[C@@H](Cc2ccccc2)C[C@H](C)C(=O)OC)cs1)C(C)C [#B1, methyl (2S,4R)-4-{[(2-{(1R,3R)-1-(acetyloxy)-3-[(N-{[1-(dimethylamino)cyclopentyl]carbonyl}-L-isoleucyl)(methyl)amino]-4-methylpentyl}-1,3-thiazol-4-yl)carbonyl]amino}-2-methyl-5-phenylpentanoate]	250	IC50 [1]: 18.9 nM; IC50 [2]: 19 nM
CC[C@H](C)[C@H](NC(=O)[C@@]1(C)CCCN1C)C(=O)N(C)[C@H](C[C@@H](OC(C)=O)c1nc(C(=O)N[C@@H](Cc2ccccc2)CN2CCOCC2)cs1)C(C)C [#B72, 1,2-dimethyl-D-prolyl-N-[(1R,3R)-1-(acetyloxy)-4-methyl-1-(4-{[(2S)-1-(morpholin-4-yl)-3-phenylpropan-2-yl]carbamoyl}-1,3-thiazol-2-yl)pentan-3-yl]-N-methyl-L-isoleucinamide]	32.9	–
CC[C@H](C)[C@H](NC(=O)[C@@]1(C)CCCN1C)C(=O)N(C)[C@H](C[C@@H](OC(C)=O)c1nc(C(=O)NCCN2Cc3ccccc3C2=O)cs1)C(C)C [#B44, 1,2-dimethyl-D-prolyl-N-[(1R,3R)-1-(acetyloxy)-4-methyl-1-(4-{[2-(1-oxo-1,3-dihydro-2H-isoindol-2-yl)ethyl]carbamoyl}-1,3-thiazol-2-yl)pentan-3-yl]-N-methyl-L-isoleucinamide]	47.6	–
CC[C@H](C)[C@H](NC(=O)[C@@]1(C)CCCN1C)C(=O)N(C)[C@H](C[C@@H](OC(C)=O)c1nc(C(=O)NC(c2ccccc2)c2ccccc2)cs1)C(C)C [#B67, 1,2-dimethyl-D-prolyl-N-[(1R,3R)-1-(acetyloxy)-1-{4-[(diphenylmethyl)carbamoyl]-1,3-thiazol-2-yl}-4-methylpentan-3-yl]-N-methyl-L-isoleucinamide]	348	–
CC[C@H](C)[C@H](NC(=O)[C@@]1(C)CCCN1C)C(=O)N(C)[C@H](C[C@@H](OC(C)=O)c1nc(C(=O)NCCC2CCCCC2)cs1)C(C)C [#B49, 1,2-dimethyl-D-prolyl-N-[(1R,3R)-1-(acetyloxy)-1-{4-[(2-cyclohexylethyl)carbamoyl]-1,3-thiazol-2-yl}-4-methylpentan-3-yl]-N-methyl-L-isoleucinamide]	127	–
CC[C@H](C)[C@H](NC(=O)[C@@]1(C)CCCN1C)C(=O)N(C)[C@H](C[C@@H](OC(C)=O)c1nc(C(=O)NC(Cc2ccccc2)c2ccc(N(C)C)cc2)cs1)C(C)C (stereo partly drawn) [#B66, 1,2-dimethyl-D-prolyl-N-{(1R,3R)-1-(acetyloxy)-1-[4-({1-[4-(dimethylamino)phenyl]-2-phenylethyl}carbamoyl)-1,3-thiazol-2-yl]-4-methylpentan-3-yl}-N-methyl-L-isoleucinamide]	52.2	–
CC[C@H](C)[C@H](NC(=O)C(C)(C)N(C)C)C(=O)N(C)[C@H](C[C@@H](OC(C)=O)c1nc(C(=O)N[C@@H](Cc2ccccc2)C[C@H](C)C(=O)OC)cs1)C(C)C [#B34, N,N,-2-trimethylalanyl-N-[(1R,3R)-1-(acetyloxy)-1-(4-{[(2R,4S)-5-methoxy-4-methyl-5-oxo-1-phenylpentan-2-yl]carbamoyl}-1,3-thiazol-2-yl)-4-methylpentan-3-yl]-N-methyl-L-isoleucinamide]	24.8	–
CC[C@H](C)[C@H](NC(=O)[C@@]1(C)CCCN1C)C(=O)N(C)[C@H](C[C@@H](OC(C)=O)c1nc(C(=O)NCCc2cccc3ccccc23)cs1)C(C)C [#B70, 1,2-dimethyl-D-prolyl-N-[(1R,3R)-1-(acetyloxy)-4-methyl-1-(4-{[2-(naphthalen-1-yl)ethyl]carbamoyl}-1,3-thiazol-2-yl)pentan-3-yl]-N-methyl-L-isoleucinamide]	56.3	–
CC[C@H](C)[C@H](NC(=O)[C@@]1(C)CCCN1C)C(=O)N(C)[C@H](C[C@@H](OC(C)=O)c1nc(C(=O)NCCc2c[nH]c3ccccc23)cs1)C(C)C [#B59, 1,2-dimethyl-D-prolyl-N-[(1R,3R)-1-(acetyloxy)-1-(4-{[2-(1H-indol-3-yl)ethyl]carbamoyl}-1,3-thiazol-2-yl)-4-methylpentan-3-yl]-N-methyl-L-isoleucinamide]	64.6	–
CC[C@H](C)[C@H](NC(=O)[C@@]1(C)CCCN1C)C(=O)N(C)[C@H](C[C@@H](OC(C)=O)c1nc(C(=O)NCC2OCCc3ccccc32)cs1)C(C)C (stereo partly drawn) [#B69, 1,2-dimethyl-D-prolyl-N-[(1R,3R)-1-(acetyloxy)-1-{4-[(3,4-dihydro-1H-isochromen-1-ylmethyl)carbamoyl]-1,3-thiazol-2-yl}-4-methylpentan-3-yl}-N-methyl-L-isoleucinamide]	29.9	–
CC[C@H](C)[C@H](NC(=O)[C@@]1(C)CCCN1C)C(=O)N(C)[C@H](C[C@@H](OC(C)=O)c1nc(C(=O)NC2(c3ccccn3)CC2)cs1)C(C)C [#B63]	105	–
CC[C@H](C)[C@H](NC(=O)[C@@]1(C)CCCN1C)C(=O)N(C)[C@H](C[C@@H](OC(C)=O)c1nc(C(=O)NC2CCc3ccccc3C2)cs1)C(C)C (stereo partly drawn) [#B57, 1,2-dimethyl-D-prolyl-N-{(1R,3R)-1-(acetyloxy)-4-methyl-1-[4-(1,2,3,4-tetrhydronaphthalen-2-ylcarbamoyl)-1,3-thiazol-2-yl)pentan-3-yl}-N-methyl-L-isoleucinamide]	78.8	–
CCOC(=O)c1ncoc1[C@H](Cc1ccccc1)NC(=O)c1csc([C@@H](C[C@H](C(C)C)N(C)C(=O)[C@@H](NC(=O)[C@@]2(C)CCCN2C)[C@@H](C)CC)OC(C)=O)n1 [#B75, 1,2-dimethyl-D-prolyl-N-{(1R,3R)-1-(acetyloxy)-1-[4-({(1S)-1-[4-(ethoxycarbonyl)-1,3-oxazol-5-yl]-2-phenylethyl}carbamoyl)-1,3-thiazol-2-yl]-4-methylpentan-3-yl}-N-methyl-L-isoleucinamide]	25.8	–
CC[C@H](C)[C@H](NC(=O)[C@@]1(C)CCCN1C)C(=O)N(C)[C@H](C[C@@H](OC(C)=O)c1nc(C(=O)NCCN2CCCC2=O)cs1)C(C)C [#B73, 1,2-dimethyl-D-prolyl-N-[(1R,3R)-1-(acetyloxy)-4-methyl-1-(4-{[2-(2-oxopyrrolidin-1-yl)ethyl]carbamoyl}-1,3-thiazol-2-yl)pentan-3-yl]-N-methyl-L-isoleucinamide]	85.5	–
CC[C@H](C)[C@H](NC(=O)[C@@]1(C)CCCN1C)C(=O)N(C)[C@H](C[C@@H](OC(C)=O)c1nc(C(=O)NCCn2ccnc2)cs1)C(C)C [#B48, 1,2-dimethyl-D-prolyl-N-[(1R,3R)-1-(acetyloxy)-1-{4-{[2-(1H-imidazol-1-yl)ethyl]carbamoyl}-1,3-thiazol-2-yl)-4-methylpentan-3-yl]-N-methyl-L-isoleucinamide]	110	–
